Measurements from patent US5506359A, “Cocaine analogues and their use as cocaine drug therapies and therapeutic and imaging agents for neurodegenerative disorders” (priority 1993, dated 1996).
Read-outs that look alike come from different tables or passages of the source.

What was measured:
[1] = target: dopamine transporter, human caudate nucleus and putamen (Homo sapiens, UniProt Q01959); experiment: [^3 H]CFT binding to homogenates of human caudate nucleus and putamen
Source text: In order to determine whether [^3 H]CFT labels sites associated with the dopamine transporter, the binding of [^3 H]CFT to homogenates of human caudate nucleus and putamen, was characterized.

[2] = system: caudate-putamen / striatum cocaine receptors; experiment: PET imaging with [^11 C]CFT
[3] = target: T1, cocaine recognition sites in monkey caudate-putamen (Macaca fascicularis, UniProt Q9GJT6); experiment: [^3 H]CFT and [^3 H]cocaine binding in tissue homogenates of monkey caudate-putamen
T1 construct: All studies were conducted in monkey brain caudate-putamen; from tissue; host or cells: monkey brain caudate-putamen homogenates
T1 sequence (Q9GJT6 whole entry): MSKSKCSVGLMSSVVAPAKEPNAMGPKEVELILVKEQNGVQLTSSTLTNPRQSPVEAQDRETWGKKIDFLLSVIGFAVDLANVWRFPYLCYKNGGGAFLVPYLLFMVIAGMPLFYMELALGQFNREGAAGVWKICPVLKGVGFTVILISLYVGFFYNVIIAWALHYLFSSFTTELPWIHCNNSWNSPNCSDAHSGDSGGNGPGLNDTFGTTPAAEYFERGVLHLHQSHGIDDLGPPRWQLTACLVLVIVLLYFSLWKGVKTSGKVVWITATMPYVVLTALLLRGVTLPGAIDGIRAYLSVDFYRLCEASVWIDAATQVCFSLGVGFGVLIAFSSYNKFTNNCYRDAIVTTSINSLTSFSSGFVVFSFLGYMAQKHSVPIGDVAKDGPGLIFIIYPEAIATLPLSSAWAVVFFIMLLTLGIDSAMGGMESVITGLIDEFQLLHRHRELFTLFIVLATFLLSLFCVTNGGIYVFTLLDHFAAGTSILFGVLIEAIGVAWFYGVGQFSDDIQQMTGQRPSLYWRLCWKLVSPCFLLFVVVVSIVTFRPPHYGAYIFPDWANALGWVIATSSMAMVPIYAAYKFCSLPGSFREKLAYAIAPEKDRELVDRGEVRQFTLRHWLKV
Procedure: All studies were conducted in monkey brain caudate-putamen for two reasons. […] Second, primates are consistently used to test diagnostic imaging agents and to test for cocaine-like drugs and drug therapies for Parkinson's disease.

[4] = system: cocaine binding sites associated with the dopamine transporter; experiment: Binding in postmortem Parkinson's diseased putamen / caudate-putamen; parameters: species or system human; details: tissue homogenates (FIG. 3) or tissue sections
[5] = system: cocaine recognition sites in squirrel monkey brain; experiment: In vitro autoradiography in squirrel monkey brain sections; format: binding
Procedure: To identify the distribution of cocaine recognition sites in the brain, autoradiographic techniques were utilized. Such techniques were particularly appropriate for this purpose because they are 100-1,000 times more sensitive than radioreceptor assays conducted in tissue homogenates. […] Three sequential procedures: parametric studies, in vitro autoradiographic techniques, and ex vivo autoradiographic techniques were conducted in tissue sections of squirrel monkey brains.
After establishing suitable conditions for autoradiography, systematic mapping of cocaine recognition sites were conducted in squirrel monkey brain at nine anterior-posterior levels. Tissue sections were incubated alone, or in the presence of excess (-)-cocaine to determine total and nonspecific binding of [^3 H]CFT, respectively.

[6] = system: cocaine receptors in squirrel monkey brain; experiment: Ex vivo autoradiography after intravenous administration; format: in vivo, squirrel monkeys
Source text: From the in vitro autoradiographic studies, two conclusions were drawn: (a) cocaine receptors labelled by [^3 H]CFT distributed primarily to dopamine-rich brain regions and (b) the highly circumscribed distribution and low level of non-specific binding of [^3 H]CFT further supported the development of CFT as a PET imaging ligand for cocaine receptors in vivo. However, as the distribution pattern of a probe in vitro may not necessarily reflect its distribution in vivo, it was necessary to determine whether similar conclusions could be drawn using ex vivo autoradiographic techniques. The ex vivo autoradiographic distribution of [^3 H]CFT was determined following intravenous administration of [^3 H]CFT (1.0 or 2.5 nmol/kg) to squirrel monkeys (FIG. 4B). Brain sections from several A-P levels were exposed to [^3 H]-sensitive film. […] Nevertheless, the ex vivo labeling of brain regions by [^3 H] CFT corresponded closely to the in vitro autoradiographic pattern.
(§1) At the time these studies were completed, a higher affinity iodinated analog of [^3 H]CFT, [^125 I]RTI-55 (i.e., CIT, 2β-carbomethoxy-3β-(4-iodophenyl)tropane; Dupont-NEN), became available. […] This ligand was also tested by ex vivo autoradiography as an imaging probe.

[7] = target: T1, cocaine recognition sites in monkey caudate-putamen; details: cited from earlier work
[8] = target: T2, dopamine transporter ([^3 H]CFT binding sites, primate caudate-putamen) (Macaca fascicularis, UniProt Q9GJT6); experiment: Inhibition of [^3 H]CFT binding in monkey caudate-putamen membranes (Table 2); parameters: species or system cynomolgus monkeys (Macaca fascicularis)
T2 construct: from tissue; host or cells: caudate-putamen membranes of cynomolgus monkey brain
T2 sequence (Q9GJT6 whole entry): as above

[9] = system: [^3 H]CFT binding sites in monkey caudate-putamen; details: cited from earlier work; for number of binding components: competition curves; for steepness of competition curve: displacement of [^3 H]CFT
[10] = system: sites in the caudate putamen; experiment: [^125 I]RTI-55 labeling of sites in caudate putamen; format: binding
Procedure: as §1

serotonin transporter = details: cited from earlier work
[11] = [^3 H]CFT 1.0 or 2.5 nmol/kg i.v.
[12] = human caudate nucleus and putamen homogenates

Sequence of dopamine transporter, human caudate nucleus and putamen (Q01959 whole entry): as the sequence (Q9GJT6 whole entry) above, with M24V, V137I, S194P, G198S, N200D, G201S, P202S counted along it

Which “rank order of potency for inhibiting [^3 H]CFT binding” value (from here on “rank order of potency for inhibiting”) [1] does the source give for `OC1(c2ccc(Cl)cc2)c2ccccc2C2=NCCN21` (stereo not shown) [mazindol] here?
Its value is “Lu 19-005>CFT, mazindol, GBR 12909>(-)-cocaine>bupropion>(+)-cocaine”.

And the “displacement of bound [^11 C]CFT from striatum” value ([2]; cynomolgus monkey, in vivo)?
Its value is “displaced bound [^11 C]CFT from the striatum”.

For `COC(=O)[C@H]1[C@@H](c2ccc(F)cc2)C[C@@H]2CC[C@H]1N2C` [[^3 H]CFT, 2β-carbomethoxy-3β-(4-fluorophenyl)tropane], which “affinity relative to [^3 H]cocaine” value [3] is on record?
Its value is 18 times.

And the “[^3 H]CFT binding sites in postmortem human Parkinson's diseased caudate-putamen” value [4]?
The value was “severely depleted”.

What about the “density of [^3 H]CFT binding” value ([5]; bed nucleus of stria terminalis, ventral tegmental area, medial preoptic area, pineal, hippocampus, thalamic central nuclei) of the same compound?
The value was “Low, though measurable, levels”.

And the “specific binding as % of total binding” value ([5]; caudate nucleus, putamen, nucleus accumbens, olfactory tubercle)?
The value was over 90%.

And the “density of [^3 H]CFT binding” value ([5]; dopamine-rich regions: caudate nucleus, putamen, nucleus accumbens, olfactory tubercle)?
The value was “High densities”.

And the “density of [^3 H]CFT binding” value ([5]; substantia nigra, zona incerta, amygdala, hypothalamus)?
Its value is “Intermediate densities”.

What about the “density of [^3 H]CFT binding” value ([5]; white matter, cerebellum, globus pallidus, cortical regions) of the same compound?
The value was “Near background levels”.

What about the “ex vivo binding compared with in vitro, cortex and thalamus” value [6, 11] of the same compound?
The value was “more prominent binding in vivo than in vitro”.

What about the “ex vivo distribution of binding” value [6, 11] of the same compound?
The value was “caudate, putaman>nucleus accumbens/olfactory tubercla, stria terminalis>substantia nigra>hypothalamus”.

What about the “character of [^3 H]CFT binding” value [1, 12] of the same compound?
Its value is “saturable, stereoselective”.

And the “stereoselective inhibition of binding” value ([7]; by enantiomers of cocaine and pseudococaine and diastereoisomers of WIN 35,065-2)?
Its value is “inhibited stereoselectively”.

What about the “NaCl requirement for specific binding” value [7] of the same compound?
The value was “NaCl was necessary for specific binding”.

What about the “dissociation rate versus [^3 H]cocaine” value [7] of the same compound?
The value was “considerably slower”.

And the “non-specific binding versus [^3 H]cocaine” value [7]?
The value was “lower than that of [^3 H]cocaine”.

And the “high-affinity component of total number of sites” value ([7]; high- and low-affinity binding components)?
Its value is “approximately 10%”.

What about the “Bmax (density of binding sites)” value ([7]; monkey caudate-putamen homogenates) of the same compound?
The value was 388 pmol/g.

And the Kd ([7]; read-out: K0.50, affinity, monkey caudate-putamen)?
The Kd was 16 nM.

With `COC(=O)[C@H]1[C@@H](c2cccc(Br)c2)C[C@@H]2CC[C@H]1N2C` [4'd (3-CBT), 2β-Carbomethoxy-3β-(3-bromophenyl)tropane] as the compound, how does the IC50 [8] read?
Its IC50 is 7.93 ± 0.077 nM.

For `Fc1ccc(C(OCCN2CCN(CCCc3ccccc3)CC2)c2ccc(F)cc2)cc1` [GBR 12909], which “rank order of potency for inhibiting” value [1] is on record?
Its value is “Lu 19-005>CFT, mazindol, GBR 12909>(-)-cocaine>bupropion>(+)-cocaine”.

What about the “number of binding components” value [9] of the same compound?
Its value is “a single binding component”.

And the “steepness of competition curve” value [9]?
The value was 0.94-1.1.

For `COC(=O)[C@H]1[C@@H](c2ccc(Cl)cc2)C[C@@H]2CC[C@H]1N2C` [4'b (CCT), 2β-Carbomethoxy-3β-(4-chlorophenyl)tropane], which IC50 [8] is on record?
The IC50 was 1.4 ± 0.035 nM.

With `COC(=O)[C@H]1[C@@H](OC(=O)c2ccccc2)C[C@@H]2CC[C@H]1N2` [(-)-norcocaine] as the compound, how does the “extent of displacement of [^3 H]CFT” value [9] read?
The value was “full displacement of [^3 H]CFT”.

And the “number of binding components” value [9]?
The value was “at least two binding components”.

And the “steepness of competition curve” value [9]?
Its value is 0.61-0.89.

With `COC(=O)[C@H]1[C@@H](c2cccc(I)c2)C[C@@H]2CC[C@H]1N2C` [4'e (3-CIT), 2β-Carbomethoxy-3β-(3-iodophenyl)tropane] as the compound, how does the IC50 [8] read?
Its IC50 is 27.8 ± 3.05 nM.

For `COC(=O)[C@H]1[C@@H](c2ccc(I)cc2)C[C@@H]2CC[C@H]1N2C` [4'h (RTI-55), 2β-carbomethoxy-3β-(4-iodophenyl)tropane], which IC50 [8] is on record?
Its IC50 is 1.08 ± 0.06 nM.

Which “rank order of potency for inhibiting” value [1] does the source give for `CC(NC(C)(C)C)C(=O)c1cccc(Cl)c1` (stereo not shown) [bupropion] here?
The value was “Lu 19-005>CFT, mazindol, GBR 12909>(-)-cocaine>bupropion>(+)-cocaine”.

What about the “number of binding components” value [9] of the same compound?
Its value is “a single binding component”.

What about the “steepness of competition curve” value [9] of the same compound?
The value was 0.94-1.1.

Which results are given for `COC(=O)[C@H]1[C@@H](c2ccc(I)cc2)C[C@@H]2CC[C@H]1N2C` [[^125 I]RTI-55, 2β-carbomethoxy-3β-(4-iodophenyl)tropane]?
ex vivo density ([6]; caudate-putamen): highest densities; ex vivo density ([6]; thalamus, cortex and brain stem nuclei): moderately high densities; potency of labeling caudate putamen sites relative to [^3 H]CFT [10]: approximately 10 fold; additional sites labeled (serotonin transporter): associated with the serotonin transporter

With `COC(=O)[C@H]1[C@@H](c2ccc(F)cc2)C[C@@H]2CC[C@H]1N2C` [[^11 C]CFT, 2β-carbomethoxy-3β-(4-fluorophenyl)tropane] as the compound, how does the striatal-to-cerebellar ratio ([2]; 58 min) read?
Its striatal-to-cerebellar ratio is over 4.0.

What about the “CFT binding in MPTP-treated Parkinsonian monkeys” value ([2]; MPTP-treated Parkinsonian) of the same compound?
Its value is “reduced”.

What about the uptake in caudate-putamen ([2]; PET, 90 min imaging) of the same compound?
The uptake in caudate-putamen was “high uptake”.

And the “CFT binding in asymptomatic monkeys” value ([2]; asymptomatic)?
Its value is “depletion was found”.

With `COC(=O)[C@H]1[C@@H](c2ccccc2)C[C@@H]2CC[C@H]1N2C` [4'g (WIN 35, 065-2)] as the compound, how does the IC50 ([8]; read-out: IC50) read?
Its IC50 is 65 ± 12 nM.

For `COC(=O)[C@H]1[C@@H](OC(=O)c2ccccc2)C[C@@H]2CC[C@H]1N2C` [(-)-cocaine], which “rank order of potency for inhibiting” value [1, 12] is on record?
Its value is “Lu 19-005>CFT, mazindol, GBR 12909>(-)-cocaine>bupropion>(+)-cocaine”.

What about the “extent of displacement of [^3 H]CFT” value [9] of the same compound?
The value was “full displacement of [^3 H]CFT”.

And the “number of binding components” value [9]?
Its value is “at least two binding components”.

What about the “steepness of competition curve” value [9] of the same compound?
The value was 0.61-0.89.

For `COC(=O)[C@@H]1[C@H](OC(=O)c2ccccc2)C[C@H]2CC[C@@H]1N2C` [(+)-cocaine], which “rank order of potency for inhibiting” value [1, 12] is on record?
The value was “Lu 19-005>CFT, mazindol, GBR 12909>(-)-cocaine>bupropion>(+)-cocaine”.

For `CCC[CH2][Sn]([CH2]CCC)([CH2]CCC)[c]1cccc([C@H]2C[C@@H]3CC[C@H]([C@H]2C(=O)OC)N3C)c1` [4'f, 2β-Carbomethoxy-3β-(3-tributylstannylphenyl)tropane], which IC50 [8] is on record?
Its IC50 is 1080 ± 165 nM.

With `CNC1CC(c2ccc(Cl)c(Cl)c2)c2ccccc21` (stereo not shown) [Lu 19-005] as the compound, how does the “number of binding components” value [9] read?
Its value is “a single binding component”.

What about the “steepness of competition curve” value [9] of the same compound?
Its value is 0.94-1.1.
